One test deals with individual B. The test can be described thus: Ergometer study c): Preparations I-IV with sulphonylureas and/or glucocorticoids, 5 minutes before test (Example 39). It counts as in vivo, human. To be noted: 125 W for 45 min, ingested 5 min before test, chlorpropamide 20 mg, glibornuride 1 mg, glibenclamide 100 μg, dexamethasone 20 μg, prednisolone 200 μg, Prep. one dose unit. Here is the method:
(§1) Analogously to Example 37, the following studies a) to c) were carried out on two male individuals, trained for endurance cycling and kept on a permanently carbohydrate-rich diet; individual A (weighing 67 kg) having a maximum oxygen uptake capacity of 3.3 l and an oxygen transport volume per heart beat of 29 ml (corresponding to 0.6 kJ), and individual B (weighing 74 kg) having a maximum oxygen uptake capacity of 4.5 l and an oxygen transport volume per heart beat of 36 ml (corresponding to 0.75 kJ) . The following preparations were used, in which the indicated amounts correspond to one dose unit and which were obtained by dissolving or suspending the components in water and gelling the mixture:
(§2) Prep. I: 10 mg of D-glucose, 1 mg of thiamine and 10 mg of ascorbic acid heated with 5 mg of agar-agar in 1 ml of water;
(§3) Prep. II: 25 mg of ethanol, 1 mg of thiamine and 50 μg of biotin heated with 5 mg of agar-agar in 1 ml of water;
Prep. III: 25 mg of ethanol, 250 μg of folic acid and 5 μg of cyanocobalamin heated with 5 mg of gelatin in 1 ml of water;
Prep. IV: 10 mg of H-Gly-Gly-OH, 300 μg of folic acid and 5 μg of cyanocobalamin heated 5 mg of gelatin in 1 ml of water.
(§4) H-Gly-Gly-OH was bought from Novabiochem, Läufelfingen, Switzerland. Insulin was injected subcutaneously, while the other medicaments were ingested alone or together with one of Preparations I-IV.
c) In a further test series, the effect of Preparations I-IV was tested when applied in combination with sulphonylurea derivatives and/or glucocorticoids immediately before the physical exercise. In these tests, individual B was subjected to a workload of 125 W (60 r.p.m.) for 45 minutes; the drugs and Preparations were ingested 5 minutes before the test.

Test [1] can be described thus: Stimulation of glycogen synthesis and anaerobic glucose breakdown in the muscle by other sugars (description). The settings on record: even if taken together with vitamin B1 and vitamin C. It counts as in vivo. The source says: D-Maltose can replace the D-glucose in the preparation according to the invention and is even active in considerably lower amounts. […] The conversion of the sucrose or fructose to glucose, however, only takes place in the liver if they have been absorbed from the small intestine.

Test [2] has as its system male individuals A and B, trained for endurance cycling. The test can be described thus: Ergometer study a): insulin or sulphonylureas alone or with gelatin and/or Preparation I or II, 15 minutes before test (Example 39). It counts as in vivo, human. Here is the method:
as §1, §2, §3, §4
a) In a first study, insulin or antidiabetic sulphonylurea derivatives were applied, alone or in combination with gelatin and/or Preparation I or II, 15 minutes before the tests. In the tests, individual A was subjected to a workload of 100 W (60 r.p.m.) for 15 minutes (tests A1-A8), and individual B was subjected to a workload of 175 W (60 r.p.m.) for 10 minutes (tests B9-B29).

Test [3] has the same test system. The test can be described thus: Ergometer study b): sulphonylureas, glucocorticoids, Preparation I and combinations, evening before test (Example 39). The settings on record: individual A, 100 W for 25 min, before sleep, glibenclamide 2.5 mg, glibornuride 25 mg. It counts as in vivo, human. Here is the method:
as §1, §2, §4
b) In a second study, antidiabetic sulphonyl urea derivatives, glucocorticoids, Preparation I and combinations thereof were administered before sleep, the evening before the tests. In the tests, individual A was subjected to a workload of 100 W (60 r.p.m.) for 25 minutes (tests A1-A9), and individual B was subjected to a workload of 175 W (60 r.p.m.) for 45 minutes (tests B10-B33).

Setting [4] is: individual A, 100 W for 15 min, 2.5 mg glibenclamide 15 min before test.
Setting [5] is: individual B, 175 W for 10 min, 15 min before test, 5 I.U. insulin s.c., glibenclamide 2.5 mg alone or 100 μg with gelatin, chlorpropamide 10 mg, gelatin 5 mg, Prep. one dose unit.

“And” between values parts separate entries of the source, which are not always exact repeats. Identical values can stand only once.

In the case of `CCCNC(=O)NS(=O)(=O)c1ccc(Cl)cc1` [chlorpropamide], in the test on individual B, the Heat production was 2717 kJ, the Mean heart rate was determined as 132.5 per min and the Oxygen consumption came out at 130 L.
`O=C(CO)[C@@H](O)[C@H](O)[C@H](O)CO` [fructose]: the “Stimulation of glycogen synthesis and of the anaerobic glucose breakdown in the muscle” value in test [1] was “ineffective”.
As for `COc1ccc(Cl)cc1C(=O)NCCc1ccc(S(=O)(=O)NC(=O)NC2CCCCC2)cc1` [glibenclamide], the Heat production in test [2] (setting [4]) was 687 kJ and 700 kJ and 679 kJ; in test [2] (setting [5]) it was 724 kJ and 698 kJ; in test [3] it was 622 kJ and 613 kJ and 531 kJ; in the test with individual B, 2727 kJ. For the same compound, the Mean heart rate in test [2] (setting [4]) was 136.4 per min. and 137.8 per min. and 135.4 per min; in test [2] (setting [5]) it was 147.5 per min. and 145.1 per min; in test [3], 101.5 per min. and 100.9 per min. and 95.4 per min; in the test with individual B it was 132.6 per min. Besides, the Oxygen consumption in test [2] (setting [4]) is 33 liter (2×) and 34 liter; in test [2] (setting [5]), 34 L; in test [3], 30 liter (2×) and 26 liter; in the test on individual B it was 131 L.
For `Cc1ccc(S(=O)(=O)NC(=O)N[C@H]2[C@H]3CC[C@@](C)([C@H]2O)C3(C)C)cc1` [glibornuride], in test [3], the Heat production is on record as 600 kJ, the Mean heart rate was determined as 100.0 per min and the Oxygen consumption worked out at 29 L. In the test on individual B, the Heat production amounted to 2706 kJ, the Mean heart rate came out at 132.2 per min and the Oxygen consumption came to 130 L.
In the case of `OC[C@H]1O[C@@](CO)(O[C@H]2O[C@H](CO)[C@@H](O)[C@H](O)[C@H]2O)[C@@H](O)[C@@H]1O` [sucrose], the “Stimulation of glycogen synthesis and of the anaerobic glucose breakdown in the muscle” value in test [1] is recorded as “ineffective”.
Consider insulin, for which, in test [2] (applied 15 minutes before the test), the “Effect on heat production and oxygen consumption induced by constant physical work loads” value is “increase”. Moreover, in test [2] (setting [5]), the Heat production is 675 kJ and 696 kJ (2×); the Mean heart rate is 142.0 per min. and 144.8 per min. (2×); the Oxygen consumption was 32 liter and 33 liter (2×).

For the origin of these results see US20010020007A1, “Vitamin preparations for reducing oxygen consumption during physical efforts” (priority 1996, published 2001).
